Source: patent publication US4604239A, “Antibiotics” (Eli Lilly and Company, priority 1985, dated 1986)
Values after ≈ are worked out from the molar mass of the structure shown. Where two headings read alike, the source gives them in different places.

Key:
[1] = tested on: Bacteroides thetaiotaomicron; assay type: cell-based
Description: (§1) The agar-dilution procedure described by the International Collaborative study (ICS) group was used to determine the minimum inhibitory concentrations (MIC's).

[2] = tested on: Fusobacterium necrophorum; test: agar-dilution MIC; assay type: cell-based; settings: Fusobacterium necrophorum 6054A; Table 14
Staph. aureus = test: experimental bacterial infection in mice; assay type: in vivo; settings: two doses subcutaneously
Protocol: All of the A41030 factors tested have shown in vivo antimicrobial activity against experimental bacterial infections. When two doses of test compound were administered subcutaneously to mice in illustrative infections, the activity observed is measured as an ED50 value [effective dose in mg./kg. to protect fifty percent of the test animals: See Warren Wick, et al., J. Bacteriol. 81, 233-235 (1961)].

Bacteroides vulgatis [3] = test: agar-dilution MIC; assay type: cell-based; settings: B. vulgatis 1563; 24-hour; Table 12
Description: (§2) The A41030 antibiotics, factors A, B, and C, are active against a genus of anaerobic bacteria identified as Bacteroides sp., the 24-hour MIC values being determined by the agar-dilution method, and are set forth in Table 12, which follows.

Bacteroides corrodens [4] = test: agar-dilution MIC; assay type: cell-based; settings: B. corrodens 1874; 24-hour; Table 12
Description: as §2

Peptococcus prevoti [5] = test: agar-dilution MIC; assay type: cell-based
Clostridium septicum = test: agar-dilution MIC; assay type: cell-based; settings: Clostridium septicum 1128; Table 14
Hemophilus influenzae = test: agar-dilution MIC; assay type: cell-based
Clostridium perfringens = assay type: cell-based; settings: Clostridium perfringens 81; Table 14
[6] = tested on: Peptostreptococcus anaerobius; test: agar-dilution MIC; assay type: cell-based
Propionibacterium acnes = test: agar-dilution MIC; assay type: cell-based
Description: Antibiotic A41030 factors A, B and C have also been tested and found to be active against a genus of anaerobic bacteria identified as Propionibacterium acnes.

[7] = tested on: Streptococcus sp. (Group D); test: agar-dilution MIC; assay type: cell-based
Description: as §1

Streptococcus pneumoniae = test: agar-dilution MIC; assay type: cell-based
Description: as §1

Streptococcus pyogenes = test: agar-dilution MIC; assay type: cell-based; settings: Streptococcus pyogenes C203; Table 17
Description: as §1

solubility = assay type: physicochemical
electrometric titration = assay type: physicochemical; settings: electrometric titration in 66% dimethylformamide in water
Description: Antibiotic A41030 factor A is a white, crystalline solid.

Bacteroides corrodens [8] = test: agar-dilution MIC; assay type: cell-based; settings: Bacteroides corrodens 1874; Table 14
Staphylococcus aureus = test: agar-dilution MIC; assay type: cell-based
[9] = tested on: Bacteroides melaninogenicus; test: agar-dilution MIC; assay type: cell-based; settings: Bacteroides melaninogenicus 2736; Table 14
Fusobacterium symbiosum = test: agar-dilution MIC; assay type: cell-based; settings: Fusobacterium symbiosum 1470; Table 14
[10] = tested on: Peptococcus asaccharolyticus; test: agar-dilution MIC; assay type: cell-based
Protocol: (§3) The MIC values were determined by the agar-dilution method, and are recorded in Table 15, which follows.

Peptococcus prevoti [11] = test: agar-dilution MIC; assay type: cell-based; settings: Table 15
Protocol: as §3

Peptococcus magnus = test: agar-dilution MIC; assay type: cell-based; settings: Pc. magnus 1477; Table 15
Protocol: as §3

Peptococcus constellatus = test: agar-dilution MIC; assay type: cell-based; settings: Pc. constellatus 1468; Table 15
Protocol: as §3

Bacteroides vulgatis [12] = test: agar-dilution MIC; assay type: cell-based; settings: Bacteroides vulgatis 1211; Table 14
S. pyogenes = test: experimental bacterial infection in mice; assay type: in vivo

Molecule `N[C@H]1C(=O)N[C@@H]2Cc3ccc(c(Cl)c3)Oc3cc4cc(c3O)Oc3ccc(cc3Cl)[C@@H](O)[C@@H]3NC(=O)C(NC(=O)[C@@H]4NC(=O)[C@@H](NC2=O)c2cc(O)cc(c2)Oc2cc1ccc2O)c1ccc(O)c(c1)-c1c(O)cc(O)cc1[C@@H](C(=O)O)NC3=O` [A41030 factor B] has an MIC ([1]; B. thetaiotaomicron 1438, 24-hour, Table 12) of 32 µg/mL (≈ 26.7 µM), an MIC ([1]; Bacteroides thetaiotaomicron 1438, Table 14) of 32 µg/mL (≈ 26.7 µM) and an MIC [2] of 8 µg/mL (≈ 6.67 µM). The ED50 (Staph. aureus) was < 0.43 mg/kg, the MIC (Bacteroides vulgatis [3]) was 32 µg/mL (≈ 26.7 µM) and the MIC (Bacteroides corrodens [4]) was 32 µg/mL (≈ 26.7 µM). For the same molecule, the MIC (Peptococcus prevoti [5]; Pc. prevoti 1281, Table 15) was 0.5 µg/mL (≈ 0.417 µM), the MIC (Peptococcus prevoti [5]; Peptococcus prevoti 1281, Table 14) was ≤ 0.25 µg/mL and the MIC (Clostridium septicum) was 4 µg/mL (≈ 3.34 µM). For the same molecule, the MIC (Hemophilus influenzae; Haemophilus influenzae 76, end point after 24 hours, Table 18) was 4 µg/mL (≈ 3.34 µM), the MIC (Hemophilus influenzae; Haemophilus influenzae 251, Table 17) was 2 µg/mL (≈ 1.67 µM) and the MIC (Hemophilus influenzae; Haemophilus influenzae 312, end point after 24 hours, Table 18) was 4 µg/mL (≈ 3.34 µM). The MIC (Hemophilus influenzae; Haemophilus influenzae 4842, end point after 24 hours, Table 18) was 4 µg/mL (≈ 3.34 µM), the MIC (Hemophilus influenzae; Haemophilus influenzae 16836, end point after 24 hours, Table 18) was 4 µg/mL (≈ 3.34 µM) and the MIC (Hemophilus influenzae; Haemophilus influenzae Bond, end point after 24 hours, Table 18) was 4 µg/mL (≈ 3.34 µM). For the same molecule, the MIC (Hemophilus influenzae; Haemophilus influenzae Brun, Table 17) was 8 µg/mL (≈ 6.67 µM), the MIC (Hemophilus influenzae; Haemophilus influenzae C.L., end point after 24 hours, Table 18) was 8 µg/mL (≈ 6.67 µM) and the MIC (Hemophilus influenzae; Haemophilus influenzae Mx366, end point after 24 hours, Table 18) was 4 µg/mL (≈ 3.34 µM). The MIC (Hemophilus influenzae; Haemophilus influenzae Mx371, end point after 24 hours, Table 18) was 4 µg/mL (≈ 3.34 µM), the MIC (Clostridium perfringens) was 0.5 µg/mL (≈ 0.417 µM) and the MIC ([6]; Peptostreptococcus anaerobius 1428, Table 14) was ≤ 0.25 µg/mL. It also gave an MIC ([6]; Ps. anaerobius 8, Table 15) of 0.25 µg/mL (≈ 0.209 µM), an MIC ([6]; Ps. anaerobius 52, Table 15) of 0.5 µg/mL (≈ 0.417 µM) and an MIC ([6]; Ps. anaerobius 59, Table 15) of 0.25 µg/mL (≈ 0.209 µM). The MIC ([6]; Ps. anaerobius 1418, Table 15) was 0.06 µg/mL (≈ 0.05 µM), the MIC ([6]; Ps. anaerobius 1428, Table 15) was 0.25 µg/mL (≈ 0.209 µM) and the MIC ([6]; Ps. anaerobius 1451, Table 15) was 0.25 µg/mL (≈ 0.209 µM). It also gave an MIC (Propionibacterium acnes; P. acnes 44, 24-hour, Table 13) of 0.06 µg/mL (≈ 0.05 µM), an MIC (Propionibacterium acnes; P. acnes 79, 24-hour, Table 13) of 0.06 µg/mL (≈ 0.05 µM) and an MIC (Propionibacterium acnes; P. acnes 101, 24-hour, Table 13) of 0.06 µg/mL (≈ 0.05 µM). For the same molecule, the MIC (Propionibacterium acnes; P. acnes 103, 24-hour, Table 13) was 0.06 µg/mL (≈ 0.05 µM), the MIC (Propionibacterium acnes; P. acnes 104, 24-hour, Table 13) was 0.25 µg/mL (≈ 0.209 µM) and the MIC (Propionibacterium acnes; P. acnes 105, 24-hour, Table 13) was 0.06 µg/mL (≈ 0.05 µM). For the same molecule, the MIC (Propionibacterium acnes; P. acnes 106, 24-hour, Table 13) was 0.06 µg/mL (≈ 0.05 µM), the MIC (Propionibacterium acnes; P. acnes 107, 24-hour, Table 13) was 0.06 µg/mL (≈ 0.05 µM) and the MIC (Propionibacterium acnes; P. acnes 5170, 24-hour, Table 13) was ≤ 0.03 µg/mL. For the same molecule, the MIC (Propionibacterium acnes; P. acnes 5176, 24-hour, Table 13) was 0.06 µg/mL (≈ 0.05 µM), the MIC (Propionibacterium acnes; P. acnes 5187, 24-hour, Table 13) was 0.06 µg/mL (≈ 0.05 µM) and the MIC (Propionibacterium acnes; P. acnes 5191, 24-hour, Table 13) was 0.06 µg/mL (≈ 0.05 µM). It also gave an MIC (Propionibacterium acnes; P. acnes 5197, 24-hour, Table 13) of 0.06 µg/mL (≈ 0.05 µM), an MIC (Propionibacterium acnes; P. acnes 5226, 24-hour, Table 13) of 0.5 µg/mL (≈ 0.417 µM) and an MIC (Propionibacterium acnes; P. acnes 5227, 24-hour, Table 13) of 0.06 µg/mL (≈ 0.05 µM). It also gave an MIC (Propionibacterium acnes; P. acnes 5228, 24-hour, Table 13) of 0.5 µg/mL (≈ 0.417 µM), an MIC (Propionibacterium acnes; P. acnes 5229, 24-hour, Table 13) of 0.25 µg/mL (≈ 0.209 µM) and an MIC (Propionibacterium acnes; P. acnes 5292, 24-hour, Table 13) of 0.06 µg/mL (≈ 0.05 µM). For the same molecule, the MIC (Propionibacterium acnes; Propionibacterium acnes 79, Table 14) was 16 µg/mL (≈ 13.3 µM), the MIC ([7]; Streptococcus sp. Group D 2041, end point after 24 hours, Table 18) was 0.5 µg/mL (≈ 0.417 µM) and the MIC ([7]; Streptococcus sp. Group D 2058, end point after 24 hours, Table 18) was 0.5 µg/mL (≈ 0.417 µM). It also gave an MIC ([7]; Streptococcus sp. Group D 8043, end point after 24 hours, Table 18) of 0.25 µg/mL (≈ 0.209 µM), an MIC ([7]; Streptococcus sp. Group D 9901, end point after 24 hours, Table 18) of 1 µg/mL (≈ 0.834 µM) and an MIC ([7]; Streptococcus sp. Group D 9960, Table 17) of 1 µg/mL (≈ 0.834 µM). It also gave an MIC ([7]; Streptococcus sp. Group D 9960, end point after 24 hours, Table 18) of 0.5 µg/mL (≈ 0.417 µM), an MIC ([7]; Streptococcus sp. Group D 12253F, end point after 24 hours, Table 18) of 0.5 µg/mL (≈ 0.417 µM) and an MIC ([7]; Streptococcus sp. Group D Mx161, end point after 24 hours, Table 18) of 0.25 µg/mL (≈ 0.209 µM). The MIC ([7]; Streptococcus sp. Group D X66, Table 17) was 1 µg/mL (≈ 0.834 µM), the MIC ([7]; Streptococcus sp. Group D X66, end point after 24 hours, Table 18) was 0.25 µg/mL (≈ 0.209 µM) and the MIC (Streptococcus pneumoniae; Streptococcus pneumoniae B1-438, end point after 24 hours, Table 18) was 0.5 µg/mL (≈ 0.417 µM). The MIC (Streptococcus pneumoniae; Streptococcus pneumoniae Park I, Table 17) was 0.5 µg/mL (≈ 0.417 µM), the MIC (Streptococcus pyogenes) was 0.25 µg/mL (≈ 0.209 µM) and the “solubility (solvents)” value (solubility) was “soluble in the same solvents as factor A”. The “possibly additional pKa's” value (electrometric titration) was > 10, the MIC (Bacteroides corrodens [8]) was 64 µg/mL (≈ 53.4 µM) and the MIC (Staphylococcus aureus; Staphylococcus aureus 3055, end point after 24 hours, Table 18) was 0.06 µg/mL (≈ 0.05 µM). It also gave an MIC (Staphylococcus aureus; Staphylococcus aureus V138, end point after 24 hours, Table 18) of 0.06 µg/mL (≈ 0.05 µM), an MIC (Staphylococcus aureus; in µg/mL) of 0.25 and an MIC [9] of 4 µg/mL (≈ 3.34 µM). For the same molecule, the MIC (Fusobacterium symbiosum) was 1.0 µg/mL (≈ 0.834 µM), the MIC ([10]; Pc. asaccharolyticus 1344, Table 15) was 0.5 µg/mL (≈ 0.417 µM) and the MIC ([10]; Peptococcus asaccharolyticus 1302, Table 14) was ≤ 0.25 µg/mL. The MIC (Peptococcus prevoti [11]; Pc. prevoti 1293) was 0.25 µg/mL (≈ 0.209 µM), the MIC (Peptococcus prevoti [11]; Pc. prevoti 1407) was 0.5 µg/mL (≈ 0.417 µM) and the MIC (Peptococcus magnus) was 0.25 µg/mL (≈ 0.209 µM). The MIC (Peptococcus constellatus) was 0.5 µg/mL (≈ 0.417 µM), the MIC (Bacteroides vulgatis [12]) was 32 µg/mL (≈ 26.7 µM) and the ED50 (S. pyogenes; S. pyogenes infection in mice, two doses subcutaneously) was 1.4 mg/kg. The “in vivo oral activity” value (S. pyogenes; against S. pyogenes in mice, oral) was > 300 mg./kg. X 2.
